ChEMBL document CHEMBL1201862, “PubChem BioAssay data set” (2004)
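Assay format: 96-well plates, 48-hour exposure. GI50: concentration for 50% inhibition of growth.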 Active and inactive are the calls of the source. No stated cut-off is given here; in the data, active = GI50 up to about 1.1 µM and inactive = higher.

Tests used:
Experiment in all cases: NCI anticancer screen, dose series, 48 h
HOP-62 = tested on: HOP-62
A549 = tested on: A549
DU-145 = tested on: DU-145
MDA-MB-435 = tested on: MDA-MB-435
OVCAR-5 = tested on: OVCAR-5
SK-MEL-28 = tested on: SK-MEL-28
SK-MEL-5 = tested on: SK-MEL-5
HT-29 = tested on: HT-29
CAKI-1 = tested on: CAKI-1
COLO 205 = tested on: COLO 205
CCRF-CEM = tested on: CCRF-CEM
KM12 = tested on: KM12
SR = tested on: SR
HCC 2998 = tested on: HCC 2998
UACC-62 = tested on: UACC-62
TK-10 = tested on: TK-10
LOX IMVI = tested on: LOX IMVI
Malme-3M = tested on: Malme-3M
Hs-578T = tested on: Hs-578T
NCI-H522 = tested on: NCI-H522
SK-OV-3 = tested on: SK-OV-3
T47D = tested on: T47D
U-251 = tested on: U-251
ACHN = tested on: ACHN
UO-31 = tested on: UO-31
HCT-116 = tested on: HCT-116
SN12C = tested on: SN12C
NCI/ADR-RES = tested on: NCI/ADR-RES
MCF7 = tested on: MCF7
OVCAR-4 = tested on: OVCAR-4
EKVX = tested on: EKVX
NCI-H23 = tested on: NCI-H23
PC-3 = tested on: PC-3
OVCAR-3 = tested on: OVCAR-3
SW-620 = tested on: SW-620
SK-MEL-2 = tested on: SK-MEL-2
SNB-19 = tested on: SNB-19
K562 = tested on: K562
BT-549 = tested on: BT-549
MOLT-4 = tested on: MOLT-4
SNB-75 = tested on: SNB-75
HOP-92 = tested on: HOP-92
OVCAR-8 = tested on: OVCAR-8
NCI-H460 = tested on: NCI-H460
MDA-MB-231 = tested on: MDA-MB-231
SF-539 = tested on: SF-539
SF-268 = tested on: SF-268
RXF 393 = tested on: RXF 393
UACC-257 = tested on: UACC-257
IGROV-1 = tested on: IGROV-1
M14 = tested on: M14
NCI-H226 = tested on: NCI-H226
RPMI-8226 = tested on: RPMI-8226
MDA-N = tested on: MDA-N
SF-295 = tested on: SF-295
A498 = tested on: A498
786-0 = tested on: 786-0
HCT-15 = tested on: HCT-15
HL-60 = tested on: HL-60

With `O=S1(=O)C[C@H](NCc2ccccc2)[C@H](NCc2ccccc2)C1` the GI50 (HOP-62) was > 100 µM (inactive), the GI50 (A549) was > 100 µM (inactive) and the GI50 (DU-145) was > 100 µM (inactive). The GI50 (MDA-MB-435) was > 100 µM (inactive), the GI50 (OVCAR-5) was > 100 µM (inactive) and the GI50 (SK-MEL-28) was > 100 µM (inactive). The GI50 (SK-MEL-5) was > 100 µM (inactive), the GI50 (HT-29) was > 100 µM (inactive) and the GI50 (CAKI-1) was > 100 µM (inactive). For the same compound, the GI50 (COLO 205) was > 100 µM (inactive), the GI50 (CCRF-CEM) was 29.4 µM (inactive) and the GI50 (KM12) was > 100 µM (inactive). For the same compound, the GI50 (SR) was 18.4 µM (inactive), the GI50 (HCC 2998) was > 100 µM (inactive) and the GI50 (UACC-62) was > 100 µM (inactive). The GI50 (TK-10) was > 100 µM (inactive), the GI50 (LOX IMVI) was > 100 µM (inactive) and the GI50 (Malme-3M) was > 100 µM (inactive). The GI50 (Hs-578T) was 73.3 µM (inactive), the GI50 (NCI-H522) was 17.6 µM (inactive) and the GI50 (SK-OV-3) was > 100 µM (inactive). For the same compound, the GI50 (T47D) was 30.8 µM (inactive), the GI50 (U-251) was 93.8 µM (inactive) and the GI50 (ACHN) was > 100 µM (inactive). For the same compound, the GI50 (UO-31) was > 100 µM (inactive), the GI50 (HCT-116) was > 100 µM (inactive) and the GI50 (SN12C) was > 100 µM (inactive). For the same compound, the GI50 (NCI/ADR-RES) was 61.5 µM (inactive), the GI50 (MCF7) was 83.8 µM (inactive) and the GI50 (OVCAR-4) was > 100 µM (inactive). The GI50 (EKVX) was > 100 µM (inactive), the GI50 (NCI-H23) was > 100 µM (inactive) and the GI50 (PC-3) was 56.5 µM (inactive). For the same compound, the GI50 (OVCAR-3) was > 100 µM (inactive), the GI50 (SW-620) was > 100 µM (inactive) and the GI50 (SK-MEL-2) was > 100 µM (inactive). For the same compound, the GI50 (SNB-19) was > 100 µM (inactive), the GI50 (K562) was 54.5 µM (inactive) and the GI50 (BT-549) was 94.2 µM (inactive). The GI50 (MOLT-4) was 23.8 µM (inactive), the GI50 (SNB-75) was > 100 µM (inactive) and the GI50 (HOP-92) was > 100 µM (inactive). The GI50 (OVCAR-8) was 96.2 µM (inactive), the GI50 (NCI-H460) was > 100 µM (inactive) and the GI50 (MDA-MB-231) was > 100 µM (inactive). The GI50 (SF-539) was > 100 µM (inactive), the GI50 (SF-268) was > 100 µM (inactive) and the GI50 (RXF 393) was > 100 µM (inactive). The GI50 (UACC-257) was > 100 µM (inactive), the GI50 (IGROV-1) was > 100 µM (inactive) and the GI50 (M14) was > 100 µM (inactive). For the same compound, the GI50 (NCI-H226) was > 100 µM (inactive), the GI50 (RPMI-8226) was 22.8 µM (inactive) and the GI50 (MDA-N) was > 100 µM (inactive). For the same compound, the GI50 (SF-295) was > 100 µM (inactive).

With `Cc1cc(C)c(-n2[nH]c(=O)n(C)c2=O)c(C)c1` the GI50 (A549) was > 100 µM (inactive), the GI50 (DU-145) was > 100 µM (inactive) and the GI50 (MDA-MB-435) was > 100 µM (inactive). The GI50 (OVCAR-5) was > 100 µM (inactive), the GI50 (SK-MEL-28) was > 100 µM (inactive) and the GI50 (SK-MEL-5) was > 100 µM (inactive). The GI50 (HT-29) was > 100 µM (inactive), the GI50 (CAKI-1) was > 100 µM (inactive) and the GI50 (COLO 205) was > 100 µM (inactive). For the same compound, the GI50 (CCRF-CEM) was > 100 µM (inactive), the GI50 (KM12) was > 100 µM (inactive) and the GI50 (A498) was > 100 µM (inactive). The GI50 (SR) was > 100 µM (inactive), the GI50 (HCC 2998) was > 100 µM (inactive) and the GI50 (UACC-62) was > 100 µM (inactive). The GI50 (TK-10) was > 100 µM (inactive), the GI50 (LOX IMVI) was > 100 µM (inactive) and the GI50 (Malme-3M) was > 100 µM (inactive). For the same compound, the GI50 (Hs-578T) was > 100 µM (inactive), the GI50 (NCI-H522) was > 100 µM (inactive) and the GI50 (SK-OV-3) was > 100 µM (inactive). For the same compound, the GI50 (T47D) was > 100 µM (inactive), the GI50 (U-251) was > 100 µM (inactive) and the GI50 (786-0) was > 100 µM (inactive). The GI50 (UO-31) was > 100 µM (inactive), the GI50 (HCT-116) was > 100 µM (inactive) and the GI50 (SN12C) was > 100 µM (inactive). For the same compound, the GI50 (NCI/ADR-RES) was > 100 µM (inactive), the GI50 (MCF7) was > 100 µM (inactive) and the GI50 (OVCAR-4) was > 100 µM (inactive). The GI50 (HCT-15) was greater than 100 µM, the GI50 (EKVX) was > 100 µM (inactive) and the GI50 (NCI-H23) was > 100 µM (inactive). The GI50 (PC-3) was > 100 µM (inactive), the GI50 (OVCAR-3) was > 100 µM (inactive) and the GI50 (SW-620) was > 100 µM (inactive). For the same compound, the GI50 (SK-MEL-2) was > 100 µM (inactive), the GI50 (SNB-19) was > 100 µM (inactive) and the GI50 (K562) was > 100 µM (inactive). For the same compound, the GI50 (BT-549) was > 100 µM (inactive), the GI50 (HL-60) was > 100 µM (inactive) and the GI50 (MOLT-4) was > 100 µM (inactive). For the same compound, the GI50 (SNB-75) was > 100 µM (inactive), the GI50 (OVCAR-8) was > 100 µM (inactive) and the GI50 (NCI-H460) was > 100 µM (inactive). For the same compound, the GI50 (MDA-MB-231) was > 100 µM (inactive), the GI50 (SF-539) was > 100 µM (inactive) and the GI50 (SF-268) was > 100 µM (inactive). For the same compound, the GI50 (RXF 393) was > 100 µM (inactive), the GI50 (UACC-257) was > 100 µM (inactive) and the GI50 (IGROV-1) was > 100 µM (inactive). The GI50 (M14) was > 100 µM (inactive), the GI50 (NCI-H226) was > 100 µM (inactive) and the GI50 (RPMI-8226) was > 100 µM (inactive). The GI50 (MDA-N) was > 100 µM (inactive).
